Molecules are shown by their SMILES.

One data set in a line: in vitro. To be noted: human, hela cells, % viability.
On to `CC(=O)c1cccc(NC(=O)CCn2[nH]c(=O)ccc2=O)c1` [CBK306094], for which the viability – broadly, a read-out of living cells in per cent, often relative to untreated cells – at 28.5 h, 10 µM came out at 91.4%.
The same measure, in the same setting: the result for `C[C@H](c1ccccc1)N1C(=O)[C@@H]2CN(C(=O)CC(C)(C)CC(=O)O)CCN2C1=O` [CBK289639] reads 114%.
Same read-out and setting: the result for `CC(N)C1CCCCN1S(=O)(=O)c1ccc(OCc2ncnn2C)cc1` (stereo not drawn) [CBK304272C] reads 94.3%; that for `COc1ccccc1CNCc1ccccc1OC` [CBK262168], 106%; that for `O=S(=O)(Nc1ccc(-c2csnn2)cc1)c1ccc(F)cc1` [CBK050482], 92.1%.
Still for that read-out and setting: the result for `COc1ccc(C(=O)NNC(=O)/C=C/c2ccc(C(C)C)cc2)cc1` [CBK261697] reads 101%.
On to `CN(C)S(=O)(=O)c1ccc(C(=O)Nc2ccc(-c3ccccc3)cc2)cc1` [CBK264978], for which the viability at 28.5 h, 10 µM came out at 96.2%.
Same read-out and setting: for `COc1ccccc1CNC(=O)c1cnc2sc(C)cn2c1=O` [CBK287708] the value was 104%; for `Cc1ccc(C(=O)NCc2nc3ccccc3[nH]2)c(N2CCOCC2)n1` [CBK106200], 88.4%; for `CC(C)(C)OC(=O)N1CCC(Oc2ccc(CN)cc2)CC1` [CBK004131], 81.7%.
The same measure, in the same setting: for `FC(F)(F)c1cccc(CN2CCN(CCc3ccccc3)CC2)c1` [CBK126421] the value was 99.7%; for `OCCOc1cccnc1OCCN1CCCC1` [CBK039174], 85.3%.
The same measure, in the same setting: the result for `CCN1CC(C(=O)N2CCCC(COc3ccc(F)cc3)C2)CC1=O` (stereo not drawn) [CBK282028] reads 85.3%; that for `O=C(NCCCN1CCOCC1)Nc1ccccc1F` [CBK269233], 88.6%; that for `CC(CCCC(C)(C)O)NS(=O)(=O)c1ccc(-c2ccon2)s1` (stereo not drawn) [CBK062466], 93.8%.
In the case of `CC(=O)c1ccc(NC(=O)N[C@H]2CCN3C(=O)[C@H]4CCCN4C(=O)[C@H]23)cc1` [CBK289228], the viability at 28.5 h, 10 µM was found to be 108%.
As for `c1ccc(CN2CCC(c3ccncc3)CC2)nc1` [CBK283505], the viability at 28.5 h, 10 µM stood at 101%.
On the same count and under the same terms, the result for `CN(Cc1cccn1C)C(=O)c1cc(-c2cnn(C)c2)[nH]n1` [CBK283325] reads 103%; that for `CN(C)CC1COc2ccccc2CN1C(=O)Cc1ccccc1F` (stereo not drawn) [CBK285080], 89.5%.
Still for that read-out and setting: for `Cc1cc(C)nc(SCc2nc3ccc([N+](=O)[O-])cc3[nH]2)n1` [CBK264634] the value was 85.3%.
As for `Cc1nc(C(Cc2ccsc2)NC(=O)c2ccnn2C)sc1C` (stereo not drawn) [CBK284778], the viability at 28.5 h, 10 µM was 87.6%.
The same measure, in the same setting: the result for `CC1=NN(c2ccc(S(N)(=O)=O)cc2)C(=O)/C1=C\c1ccc(-c2ccc(S(N)(=O)=O)cc2)o1` [CBK263476] reads 97.4%; that for `COCCN(CC1CC1)C(=O)c1cc(NC(C)=O)ccc1Cl` [CBK304352], 109%.
On the same count and under the same terms, the result for `CCOc1cccc2cc(-c3cc(=O)oc4cc(C)c(O)cc34)oc12` [CBK300517] reads 95.9%; that for `COc1ccccc1-c1noc(C2CCN(S(=O)(=O)c3ccc(F)cc3)CC2)n1` [CBK269401], 92.9%; that for `Oc1c(C(c2ccccc2)N2CCc3ccccc3C2)sc2ncnn12` (stereo not drawn) [CBK287612], 99.9%.
On the same count and under the same terms, the result for `CC(C)(C)OC(=O)N1CCC(Oc2nccnc2OCc2ccc(Cl)cc2F)CC1` [CBK163968] reads 104%; that for `C[C@@H](Nc1nccnc1-c1cccc(F)c1)c1ccccc1` [CBK036733], 98.3%.
With `CS(=O)(=O)N1CCCc2cc(C(=O)O)ccc21` [CBK287072], the viability at 28.5 h, 10 µM was 93%.
Same read-out and setting: the result for `COCCNC(=O)CN(C)c1cnc2ccccc2n1` [CBK305265] reads 89.2%; that for `O=C(NC(=S)Nc1ccc(-c2nc3ncccc3o2)cc1)c1ccc2c(c1)OCCO2` [CBK265812], 96.4%; that for `O=C(O)c1cccn1-c1cc(Cl)cc(Cl)c1` [CBK286932], 98.8%.
Consider `CC(C)(C)OC(=O)N1CCN(c2nccnc2Cl)CC1` [CBK013554], for which the viability at 28.5 h, 10 µM is 102%.
Same read-out and setting: for `Cc1nnc2sc(-c3ccc(NC(=S)NC(=O)c4cc5ccccc5o4)cc3)nn12` [CBK266795] the value was 100%.
As to `O=C(Nc1nnc(SCc2cc(=O)n3nc[nH]c3n2)s1)c1ccc(F)cc1` [CBK294399], the viability at 28.5 h, 10 µM stood at 90.2%.
As to `CCCc1[nH]nc(O)c1C(=O)c1c(F)cccc1Cl` [CBK103524], the viability at 28.5 h, 10 µM amounted to 103%.
Same read-out and setting: for `O=C(O)c1cccc(NS(=O)(=O)CC(F)(F)F)c1` [CBK155712] the value was 94.3%; for `COc1ccc(C2NCCS2)cc1Br` (stereo not drawn) [CBK021053], 104%.
For `Cc1cc(CN(C)Cc2ccc(N3CCCC3)c(F)c2)n[nH]1` [CBK281953], the viability at 28.5 h, 10 µM was found to be 104%.
Regarding `Cc1cc(C)c(S(=O)(=O)NCCSCCC(=O)O)c(C)c1` [CBK013358], the viability at 28.5 h, 10 µM is 95.7%.
Still for that read-out and setting: the result for `O=C(CCc1ccc(=O)[nH]n1)N1CCCCC1c1nc2cc(F)ccc2[nH]1` (stereo not drawn) [CBK291107] reads 105%.
Regarding `Cc1ncccc1COC(=O)N1c2ccccc2CCC1C` (stereo not drawn) [CBK200204], the viability at 28.5 h, 10 µM stood at 101%.
Still for that read-out and setting: for `N#CC1=C(N)Oc2[nH]nc(-c3ccccc3)c2C12C(=O)N(Cc1ccccc1)c1ccccc12` (stereo not drawn) [CBK267787] the value was 93.7%; for `O=C(O)c1cc(S(=O)(=O)NCCCN2CCOCC2)ccc1Cl` [CBK299804], 96.8%; for `O=C1CC(c2ccccc2O)CC2=C1C=Nc1ccccc1N2` (stereo not drawn) [CBK270287], 97.4%.
Turning to `O=C(OCc1nc2cc3ccccc3cc2[nH]1)C1CCCCC1` [CBK018307], the viability at 28.5 h, 10 µM stood at 94%.
Same read-out and setting: for `COc1cccc(-c2cnc(N)c(NCc3ccco3)n2)c1` [CBK063684] the value was 99.6%; for `O=C(Cn1nnc(-c2ccccc2)n1)Nc1cccc([N+](=O)[O-])c1` [CBK263057], 97.9%; for `Cc1cnc(NC(=O)c2ncoc2-c2cccs2)s1` [CBK283977], 102%.
As to `CC(C)(C)NCCN1CCn2c1nc1ccccc12` [CBK019113], the viability at 28.5 h, 10 µM came to 82%.
With `C=CCSc1nnc(-c2ccccc2NC(=O)CC)c(O)n1` [CBK266411], the viability at 28.5 h, 10 µM turned out to be 115%.
On the same count and under the same terms, the result for `Cc1cccc2c3c([nH]c12)C1(CCCN(CCc2ccc([N+](=O)[O-])cc2)C1)NCC3` (stereo not drawn) [CBK039558] reads 92.4%.
Turning to `CCOC(=O)CN1CCN(C(=O)Nc2ccccc2Br)CC1` [CBK044156], the viability at 28.5 h, 10 µM is 103%.
The same measure, in the same setting: the result for `CN(Cc1ccccc1)C(=O)[C@@H]1Cc2[nH]cnc2CN1Cc1cc2ccccc2o1` [CBK288978] reads 108%; that for `CCOc1ccc(-c2c(C3CC3)n[nH]c2N)cc1OCC` [CBK288177], 107%; that for `COc1ccc2c(c1)c(C(=O)NCCn1nc(C)cc1C)c(C)n2C` [CBK304615], 78%.
With `CCc1nc2sc(C(N)=O)c(N)c2c2c1CCCC2` [CBK131872], the viability at 28.5 h, 10 µM was 101%.
On the same count and under the same terms, the result for `COc1cccc(CC2(C#N)CC2)c1` [CBK003907] reads 87.5%.
For the molecule `Cc1cn(C2CC(O)C(CO)O2)c(=O)[nH]c1=O` (stereo not drawn) [CBK011998], the viability at 28.5 h, 10 µM turned out to be 93.3%.
On to `COc1ccc(F)c(CN2CCC3(CCCNC3=O)CC2)c1` [CBK284827], for which the viability at 28.5 h, 10 µM is 102%.
For `O=C(NCC1COc2ccccc2O1)C1(c2ccccc2)CCCC1` (stereo not drawn) [CBK149524], the viability at 28.5 h, 10 µM turned out to be 93.8%.
Still for that read-out and setting: for `COc1ccccc1/C=N/NC(=O)C(=O)NCc1ccccn1` [CBK262286] the value was 93.7%.
In the case of `O=C(O)c1sc2ncccc2c1NS(=O)(=O)c1cc(Cl)sc1Cl` [CBK050650], the viability at 28.5 h, 10 µM worked out at 78.2%.
With `CCOC(=O)C1CCCN(C(=O)Cn2c(C)nc3ccccc3c2=O)C1` (stereo not drawn) [CBK306150], the viability at 28.5 h, 10 µM is 77.9%.
`O=S(=O)(c1ccc(Cl)c(Cl)c1)c1ccc2nccc(N3CCNCC3)c2c1` [CBK036497C]: the viability at 28.5 h, 10 µM was 84.8%.
Still for that read-out and setting: the result for `Nc1c(Cc2c(Cl)cccc2Cl)c(=O)n2n1CCC2` [CBK088948] reads 98.9%; that for `CC(C)OCC1CN(c2cc(CO)c(F)cn2)CCO1` (stereo not drawn) [CBK304755], 89.7%.
Take `Cc1cc(/C=N/O)c(C)c(COCc2cc(C)cc(/C=N/O)c2C)c1` [CBK261770]: the viability at 28.5 h, 10 µM stood at 91.2%.
On the same count and under the same terms, the result for `NS(=O)(=O)c1ccc(NC(=O)c2cc3c(n(-c4ccccc4)c2=O)CCCC3=O)cc1` [CBK266467] reads 115%; that for `CCC(C(=O)N1CCC(C(=O)c2cccnc2)CC1)c1ccccc1` (stereo not drawn) [CBK283525], 91.1%.
On the same count and under the same terms, for `O=C(c1cscn1)N1CCCCC1c1nc2ccccc2[nH]1` (stereo not drawn) [CBK283394] the value was 91%; for `CCn1cc(C(=O)NC2(c3cccc(OC)c3)CCCC2)cn1` [CBK283750], 101%.
Still for that read-out and setting: for `COc1ccccc1CC(c1ccccc1)C1CN(C)CCO1` (stereo not drawn) [CBK009925C] the value was 116%; for `CCn1c(SCC(=O)Nc2ccc(C(C)=O)cc2)nnc1-c1cc(Br)ccc1O` [CBK268515], 89.2%; for `CN(C)c1cccc(C(=O)Nc2ccccc2N2CCOCC2)c1` [CBK295184], 76.2%.
Turning to `COc1ccc(S(=O)(=O)N(C)c2ccc(C(=O)NCc3ccccn3)cc2)cc1` [CBK269099], the viability at 28.5 h, 10 µM was determined as 88.1%.
Take `O=C(NCC1CCCO1)[C@H]1CCCC[C@H]1C(=O)O` (stereo partly drawn) [CBK287104]: the viability at 28.5 h, 10 µM was 88.7%.
Take `C=CCNC1OC(CO)C(O)C(O)C1O` (stereo not drawn) [CBK261357]: the viability at 28.5 h, 10 µM came to 88.9%.
Regarding `O=C1CC(c2ccccc2)=NN1c1nc(-c2ccccc2)cc(-c2ccc(F)cc2)n1` [CBK261717], the viability at 28.5 h, 10 µM turned out to be 92.4%.
The same measure, in the same setting: for `COCCN(Cc1cnn(C)c1)Cc1cc(O)c2cc(C)ccc2n1` [CBK306723] the value was 86.1%.

Still in this data set, the particulars now being: human, hela cells, % viability, bulk resorufin, single well.
Consider `Cc1ccc(OCCn2cc(/C=C3/C(=O)NC(=O)N(Cc4ccco4)C3=O)c3ccccc32)cc1` [CBK263936], for which the viability at 28.5 h, 10 µM was determined as 92.9%.

For the origin of these results see article PMC12040169 (PLOS Biology, 2025).
